Columns and labels:
[1] = test system: MCF-7 breast cancer cells; assay: AlamarBlue viability and proliferation assay of MCF-7 breast cancer cells; assay type: cell-based, human; details: MCF-7 cells
Description: For the biological studies, MCF-7 breast cancer cells were obtained from an immortal cell line from human adenocarcinoma from (primary site) mammary gland and (metastatic site) pleural effusion (ATCC no HTB-22).
MCF-7 breast cancer cells were cultured in Dulbecco's modified Eagle's medium (DMEM), 13.53 g/L with sodium bicarbonate (NaHCO3), 3.7 g/L supplemented with 10% foetal bovine serum (FBS), 1% gentamycin and 5% Penicillin/Streptomycin/Fungizone in 75 cm^3 culture flasks. Cells were subcultured twice a week and incubated at 37° C. with 5% CO2 in a humidified atmosphere. Hanks balanced salt solution (HBSS), supplemented DMEM media and trypsin versene were warmed to 37° C. prior to subculturing. Cells were washed twice with 10 ml Hanks balanced salt solution for 1 minute and were then incubated for 4.5 to 5 minutes at 37° C. with 6 ml trypsin versene to remove the cells from the culture flask. To inactivate the trypsin versene, 10 ml supplemented DMEM was added and the cells were pelleted by centrifugation at 1028 g for 4 minutes with an Allegra™ 25R Centrifuge. The pellet was resuspended in 1 ml supplemented DMEM and 500 μl of the cell suspension was then added to 25 ml of supplemented DMEM media in 75 cm^3 culture flasks.
MCF-7 breast cancer cells, in terms of a first study, and SNO-oesophageal cancer cells, in terms of a second study, were treated with 10 μM silverthiocyanide complexes (1)-(5), as well as their ligands (Ligand-1 to Ligand-5) over a 24 hour incubation period. […] An untreated negative control (UT) was exposed to similar conditions as the treated cells and monitored during the experimental study.
The AlamarBlue® viability and proliferation assay of complexes (1)-(5) for the MCF-7 breast cancer cells is depicted in FIGS. 1A to 1F. The percentage viability of control samples determined by the AlamarBlue® viability and proliferation assay is depicted in FIG. 1A. […] A significant difference (P<0.001) between the control and the treated samples was calculated using Student's T-test and is indicated by an asterisk.
(§1) This Figure depicts the percentage viability of MCF-7 cells treated with various concentrations of complex (1) as determined by the AlamarBlue® viability and proliferation assay. […] The asterisk indicates a significant difference between a sample and the control (P<0.001) as calculated with Student's T-test.
as §1, with “FIG. 1C to FIG. 1F represent the dose dependant studies of complexes (2) to (5), respectively. In each of these Figures,” for “This Figure depicts”, “complexes (2) to (5) was” for “complex (1) as”, “T-test. […]” for “T-test.”

[2] = test system: SNO-oesophageal cancer cells; assay type: cell-based
Description: The SNO-oesophageal cancer cells were cultured in Dulbecco's modified Eagles medium (DMEM) containing 10% Foetal bovine serum (FBS), 0.8% Penicillin/Streptomycin/Fungizone and 0.2% Gentamycin. The SNO-oesophageal cancer cells were subcultured every 48 hours and incubated at 37° C. under a 5% CO2 humidified atmosphere. After 48 hours the cells were trypsinized and plated (6×10^5 cells) in 3.5 cm culture dishes and left to cultivate for 24 hours.
MCF-7 breast cancer cells, in terms of a first study, and SNO-oesophageal cancer cells, in terms of a second study, were treated with 10 μM silverthiocyanide complexes (1)-(5), as well as their ligands (Ligand-1 to Ligand-5) over a 24 hour incubation period. These complexes were dissolved in 0.1% Dimethyl sulfoxide (DMSO). The DMSO alone (vehicle control) decreased the viability with approximately 2.2%, signifying its minimal influence in cancer cell growth. For comparative purposes, 100 μM Cisplatin (CDDP) and 25% H2O2 was included which respectively serves as the apoptotic and necrotic controls. Cisplatin was prepared in 0.9% NaCl, whereas H2O2 was prepared in the supplemented DMEM media right before treatment. An untreated negative control (UT) was exposed to similar conditions as the treated cells and monitored during the experimental study.
An AlamarBlue® Viability® (Serotec, UK) assay was performed after a 24 hour treatment with complexes (1)-(5) and their ligands (Ligand-1 to Ligand-5, respectively) to evaluate the cellular effect the instant complexes (and their ligands) may have on the cancer cells. AlamarBlue® dye (10%) was incubated with trypsinized cells over a 2 hour period before the fluorescence was measured with a Synergy HT Multi-Detection Microplate reader (BioTek, Winooski, Vt.) at wavelengths of 530 nm and (excitation) and 590 nm (emission). This fluorescent based assay in particular involves the metabolic oxidation-reduction reaction of resazurin to a reduced resorufin product that is directly proportional to the amount of viable cells.
The percentage cellular viability of differentially treated SNO-oesophageal cells was determined using an AlamarBlue® assay, as depicted in FIG. 7. Different controls (grey) were included: untreated, 0.1% DMSO solvent and apoptotic control (100 μM Cisplatin) as well as the corresponding ligands (10 μM) of complexes (1)-(5). Cells were treated with silver(I) thiocyanate phosphine complexes (1)-(5) at a concentration of 10 μM. The percentages were calculated with respect to the control and error bars were constructed on the basis of Standard Error of the Mean (SEM) where n=9 except for the ligand of compound 4 (n=8). The P-values (*P<0.001 and **P<0.0001) were determined with the Student's T-test to evaluate the significant difference.
The cells were thereafter treated with complexes (6)-(9) at a concentration of 10 μM prepared in 0.1% DMSO. Treatment with either 25% H2O2 or 100 μM CDDP served as controls for necrosis and apoptosis respectively. The CDDP was prepared in 0.9% NaCl while the H2O2 was diluted with supplemented DMEM prior to treatment.
A suspension (100 μl) of the differentially treated cells was added in triplicate to a microtiter plate. In the dark, AlamarBlue® dye (10 μl) was added to each well containing a sample, followed by a 2 hour incubation in a 5% CO2 incubator at 37° C. The fluorescence was read on a Synergy HT Multi-Detection Microplate reader at a wavelength of 530 nm and (excitation) and 590 nm (emission). In terms of this study, the apoptotic control CDDP (100 μM) was included. Error bars represent the standard error of the mean (SEM) where n=9. The Student's T-test was used to determine the significant difference of the treatments with respect to DMSO (P*<0.05 and P**<0.001). The silver(I) nitrate phosphine complexes under evaluation decreased the cancer cell viability to a large extent compared to DMSO except complex (9).
SNO-oesophageal cancer cells were a gift from the University of Pretoria, RSA. […]

Compound	cytotoxic activity (ranking) [1]	cancer cell viability / toxicity ([2]; 10 μM in 0.1% DMSO, 24 hours, compared to vehicle control)	cancer cell death induced ([2]; 10 μM, 24 hours) [%]	percentage cellular viability / toxicity ([2]; 10 μM, 24 hour treatment, compared to the control)
C1#[N+][Ag]([P+](c2ccccc2)(c2ccccc2)c2ccccc2)([P+](c2ccccc2)(c2ccccc2)c2ccccc2)[S]C#[N+][Ag]([P+](c2ccccc2)(c2ccccc2)c2ccccc2)([P+](c2ccccc2)(c2ccccc2)c2ccccc2)[S]1 [complex (1), [AgSCN(PPh3)2]2]	strongest			
c1ccc([P+](c2ccccc2)(c2ccccc2)[Ag+]([P+](c2ccccc2)(c2ccccc2)c2ccccc2)([P+](c2ccccc2)(c2ccccc2)c2ccccc2)[P+](c2ccccc2)(c2ccccc2)c2ccccc2)cc1 [complex (9), AgNO3(PPh3)4]		low cytotoxicity	~31.25	
[AgSCN{P(4-FC6H4)3}2]2 [complex (3)]	strongest			highly toxic
